Results: patent US9963455B2, “Pyrazolo[1,5-a]pyrimidines as antiviral compounds” (Curovir AB, priority 2014, dated 2018)

How the values were obtained:
Format in all cases: cell-based
Ljungan virus strain 145 = assay: CPE inhibition in mammalian cell culture, LV145; details: Parechovirus B; for inhibition at 10 µM: LV145, Conc. 10.0 μM; for inhibition at 1 µM: LV145, Conc. 1.0 μM
Enterovirus strain 30 = assay: CPE inhibition in mammalian cell culture, EV30
Enterovirus strain 71 = assay: CPE inhibition in mammalian cell culture, EV71; details: for inhibition at 0.01 µM: EV71, Conc. 0.01 μM; for inhibition at 1 µM: EV71, Conc. 1.0 μM
[1] = test system: coxsackie B virus strain 1; assay: CPE inhibition in mammalian cell culture, Cox-B1; details: read-out: % inh.
Ljungan virus strain 012 = assay: CPE inhibition in mammalian cell culture, LV012; details: Parechovirus B, read-out: % inh.; for inhibition at 10 µM: LV012, Conc. 10 μM
[2] = test system: coxsackie B virus strain 5; assay: CPE inhibition in mammalian cell culture, Cox-B5; details: read-out: % inh.
[3] = test system: coxsackie B virus strain 2; assay: CPE inhibition in mammalian cell culture, Cox-B2; details: read-out: % inh.

## CCc1nn2c(NCCCn3ccnc3)cc(C)nc2c1-c1ccccc1 [Ex. 31, 2-ethyl-N-(3-imidazol-1-ylpropyl)-5-methyl-3-phenyl-pyrazolo[1,5-a]pyrimidin-7-amine]
Ljungan virus strain 145
  inhibition at 10 µM: 14%

## COc1ccc(-c2c(C)nn3c(NCCc4ccccn4)cc(C)nc23)cc1 [Ex. 68, 3-(4-methoxyphenyl)-2,5-dimethyl-N-[2-(2-pyridyl)ethyl]pyrazolo[1,5-a]pyrimidin-7-amine]
Ljungan virus strain 145
  inhibition at 10 µM: 86%

## COc1cc(-c2c(C)nn3c(NCc4ccc(F)cc4)cc(C)nc23)cc(OC)c1OC [Ex. 105, N-[(4-fluorophenyl)methyl]-2,5-dimethyl-3-(3,4,5-trimethoxyphenyl)pyrazolo[1,5-a]pyrimidin-7-amine]
Enterovirus strain 30; EV30, Conc. 10 μM, read-out: % inh.
  inhibition at 10 µM: 67%

## COc1ccc(-c2c(C)nn3c(NCc4ccc(S(N)(=O)=O)cc4)cc(C)nc23)cc1OC [Ex. 97, 4-[[[3-(3,4-dimethoxyphenyl)-2,5-dimethyl-pyrazolo[1,5-a]pyrimidin-7-yl]amino]methyl]benzenesulfonamide]
Enterovirus strain 71; EV71, Conc. 0.1 μM
  inhibition at 0.1 µM: 94%

## COc1ccc(-c2c(C)nn3c(Nc4ccc(C)c(Cl)c4)cc(C)nc23)cc1OC [Ex. 55, N-(3-chloro-4-methyl-phenyl)-3-(3,4-dimethoxyphenyl)-2,5-dimethyl-pyrazolo[1,5-a]pyrimidin-7-amine]
Ljungan virus strain 145
  inhibition at 1 µM: 41%

## COc1ccc(-c2c(C)nn3c(NCCc4ccccn4)cc(C)nc23)cc1OC [Ex. 85, 3-(3,4-dimethoxyphenyl)-2,5-dimethyl-N-[2-(2-pyridyl)ethyl]pyrazolo[1,5-a]pyrimidin-7-amine]
[1]
  inhibition at 1 µM: 98%

## CCc1nn2c(NCCc3ccc(OC)c(OC)c3)cc(C)nc2c1-c1ccccc1 [Ex. 30, N-[2-(3,4-dimethoxyphenyl)ethyl]-2-ethyl-5-methyl-3-phenyl-pyrazolo[1,5-a]pyrimidin-7-amine]
Ljungan virus strain 145
  inhibition at 10 µM: 100%

## COc1ccc(CCNc2cc(C)nc3c(-c4ccc(F)cc4)cnn23)cc1OC [Ex. 19, N-[2-(3,4-dimethoxyphenyl)ethyl]-3-(4-fluorophenyl)-5-methyl-pyrazolo[1,5-a]pyrimidin-7-amine]
Ljungan virus strain 145
  inhibition at 10 µM: 34%

## COc1ccc(-c2c(C)nn3c(NCc4ccc(C(C)(C)C)cc4)cc(C)nc23)cc1OC [Ex. 86, N-[(4-tert-butylphenyl)methyl]-3-(3,4-dimethoxyphenyl)-2,5-dimethyl-pyrazolo[1,5-a]pyrimidin-7-amine]
Ljungan virus strain 012
  inhibition at 10 µM: 48%

## COc1ccc(-c2c(C)nn3c(NCc4ccc(N(C)C)cc4)cc(C)nc23)cc1OC [Ex. 78, 3-(3,4-dimethoxyphenyl)-N-[(4-dimethylaminophenyl)methyl]-2,5-dimethyl-pyrazolo[1,5-a]pyrimidin-7-amine]
[1]
  inhibition at 0.1 µM: 94%

## COc1ccc(-c2c(C)nn3c(Nc4cccc(Cl)c4)cc(C)nc23)cc1OC [Ex. 51, N-(3-chlorophenyl)-3-(3,4-dimethoxyphenyl)-2,5-dimethyl-pyrazolo[1,5-a]pyrimidin-7-amine]
Ljungan virus strain 145
  inhibition at 10 µM: 94%

## COc1cccc(Nc2cc(C)nc3c(-c4ccc(OC)c(OC)c4)c(C)nn23)c1 [Ex. 61, 3-(3,4-dimethoxyphenyl)-N-(3-methoxyphenyl)-2,5-dimethyl-pyrazolo[1,5-a]pyrimidin-7-amine]
Ljungan virus strain 145
  inhibition at 10 µM: 85%

## Cc1ccc(CNc2cc(C)nc3c(-c4ccc(O)c(O)c4)c(C)nn23)cc1 [Ex. 110, 4-[2,5-dimethyl-7-(p-tolylmethylamino)pyrazolo[1,5-a]pyrimidin-3-yl]benzene-1,2-diol]
[2]
  inhibition at 1 µM: 72%

## COc1ccc(-c2c(C)nn3c(NCc4cc[n+]([O-])cc4)cc(C)nc23)cc1OC [Ex. 83, 3-(3,4-dimethoxyphenyl)-2,5-dimethyl-N-[(1-oxidopyridin-1-ium-4-yl)methyl]pyrazolo[1,5-a]pyrimidin-7-amine]
Enterovirus strain 71
  inhibition at 0.01 µM: 82%

## COc1ccc(-c2c(C)nn3c(NCc4ccccn4)cc(C)nc23)cc1OC [Ex. 35, 3-(3,4-dimethoxyphenyl)-2,5-dimethyl-N-(2-pyridylmethyl)pyrazolo[1,5-a]pyrimidin-7-amine]
Enterovirus strain 30; EV30, Conc. 0.1 μM
  inhibition at 0.1 µM: 88%

## COc1ccc(-c2c(C)nn3c(Nc4ncc(C)s4)cc(C)nc23)cc1OC [Ex. 93, N-[3-(3,4-dimethoxyphenyl)-2,5-dimethyl-pyrazolo[1,5-a]pyrimidin-7-yl]-5-methyl-thiazol-2-amine]
Ljungan virus strain 012; LV012, Conc. 100 μM
  inhibition at 100 µM: 42%

## COc1ccc(-c2c(C)nn3c(Nc4ccc(Cl)c(Cl)c4)cc(C)nc23)cc1OC [Ex. 59, N-(3,4-dichlorophenyl)-3-(3,4-dimethoxyphenyl)-2,5-dimethyl-pyrazolo[1,5-a]pyrimidin-7-amine]
[3]
  inhibition at 10 µM: 88%

## COc1ccc(CCNc2cc(C)nc3c(-c4ccccc4)cnn23)cc1OC [Ex. 22, N-[2-(3,4-dimethoxyphenyl)ethyl]-5-methyl-3-phenyl-pyrazolo[1,5-a]pyrimidin-7-amine]
[3]
  inhibition at 10 µM: 44%

## COc1ccc(-c2c(C)nn3c(NCc4ccccc4)cc(C)nc23)cc1OC [Ex. 40, N-benzyl-3-(3,4-dimethoxyphenyl)-2,5-dimethyl-pyrazolo[1,5-a]pyrimidin-7-amine]
Enterovirus strain 71
  inhibition at 0.01 µM: 100%

## COc1ccc(-c2c(C)nn3c(NC4Cc5ccccc5C4)cc(C)nc23)cc1OC [Ex. 91, 3-(3,4-dimethoxyphenyl)-N-indan-2-yl-2,5-dimethyl-pyrazolo[1,5-a]pyrimidin-7-amine]
[2]
  inhibition at 1 µM: 75%

## Cc1cc(NCc2cccnc2)n2nc(C)c(-c3ccc(F)cc3)c2n1 [Ex. 36, 3-(4-fluorophenyl)-2,5-dimethyl-N-(3-pyridylmethyl)pyrazolo[1,5-a]pyrimidin-7-amine]
[2]
  inhibition at 1 µM: 97%

## Cc1cc(NCc2ccccc2)n2nc(C)c(-c3ccc(F)cc3)c2n1 [Ex. 13, N-benzyl-3-(4-fluorophenyl)-2,5-dimethyl-pyrazolo[1,5-a]pyrimidin-7-amine]
Enterovirus strain 71
  inhibition at 1 µM: 66%

## Cc1cc(NC2CCCC2)n2nc(C)c(-c3ccc(F)cc3)c2n1 [Ex. 38, N-cyclopentyl-3-(4-fluorophenyl)-2,5-dimethyl-pyrazolo[1,5-a]pyrimidin-7-amine]
Ljungan virus strain 145
  inhibition at 10 µM: 84%

## Cc1cc(NCCc2ccccc2)n2ncc(-c3ccc(Cl)cc3)c2n1 [Ex. 26, 3-(4-chlorophenyl)-5-methyl-N-phenethyl-pyrazolo[1,5-a]pyrimidin-7-amine]
[3]
  inhibition at 10 µM: 30%

## COc1ccc(-c2c(C)nn3c(NCCc4cccs4)cc(C)nc23)cc1OC [Ex. 88, 3-(3,4-dimethoxyphenyl)-2,5-dimethyl-N-[2-(2-thienyl)ethyl]pyrazolo[1,5-a]pyrimidin-7-amine]
Enterovirus strain 30; EV30, Conc. 1.0 μM, read-out: % inh.
  inhibition at 1 µM: 88%

## COc1ccc(-c2c(C)nn3c(Nc4ccncc4)cc(C)nc23)cc1OC [Ex. 74, 3-(3,4-dimethoxyphenyl)-2,5-dimethyl-N-(4-pyridyl)pyrazolo[1,5-a]pyrimidin-7-amine]
Ljungan virus strain 012
  inhibition at 10 µM: 55%

## COc1ccc(CCNc2cc(C)nc3c(-c4ccc(C)cc4)cnn23)cc1OC [Ex. 29, N-[2-(3,4-dimethoxyphenyl)ethyl]-5-methyl-3-(p-tolyl)pyrazolo[1,5-a]pyrimidin-7-amine]
[3]
  inhibition at 10 µM: 62%

## COc1ccc(-c2c(C)nn3c(Nc4cc(C)cc(C)c4)cc(C)nc23)cc1OC [Ex. 56, 3-(3,4-dimethoxyphenyl)-N-(3,5-dimethylphenyl)-2,5-dimethyl-pyrazolo[1,5-a]pyrimidin-7-amine]
Ljungan virus strain 145
  inhibition at 1 µM: 61%

## COc1ccc(-c2c(C)nn3c(NCc4ccc(C)cc4)cc(C)nc23)cc1F [Ex. 108, 3-(3-fluoro-4-methoxy-phenyl)-2,5-dimethyl-N-(p-tolylmethyl)pyrazolo[1,5-a]pyrimidin-7-amine]
[1]
  inhibition at 1 µM: 100%

## COc1ccc(-c2c(C)nn3c(Nc4ccc(C(C)C)cc4)cc(C)nc23)cc1OC [Ex. 60, 3-(3,4-dimethoxyphenyl)-N-(4-isopropylphenyl)-2,5-dimethyl-pyrazolo[1,5-a]pyrimidin-7-amine]
Enterovirus strain 71
  inhibition at 1 µM: 69%

## Cc1cc(NCc2ccc(F)cc2)n2nc(C)c(-c3ccc(F)c(F)c3)c2n1 [Ex. 106, 3-(3,4-difluorophenyl)-N-[(4-fluorophenyl)methyl]-2,5-dimethyl-pyrazolo[1,5-a]pyrimidin-7-amine]
Ljungan virus strain 145
  inhibition at 10 µM: 100%

## COc1ccc(-c2c(C)nn3c(Nc4ccc(C)c(C)c4)cc(C)nc23)cc1OC [Ex. 52, 3-(3,4-dimethoxyphenyl)-N-(3,4-dimethylphenyl)-2,5-dimethyl-pyrazolo[1,5-a]pyrimidin-7-amine]
Ljungan virus strain 145
  inhibition at 10 µM: 63%

## COc1ccc(-c2c(C)nn3c(NCc4cccnc4)cc(C)nc23)cc1 [Ex. 65, 3-(4-methoxyphenyl)-2,5-dimethyl-N-(3-pyridylmethyl)pyrazolo[1,5-a]pyrimidin-7-amine]
[3]
  inhibition at 1 µM: 91%

## COc1ccc(-c2c(C)nn3c(NCc4cccc5ccccc45)cc(C)nc23)cc1OC [Ex. 96, 3-(3,4-dimethoxyphenyl)-2,5-dimethyl-N-(1-naphthylmethyl)pyrazolo[1,5-a]pyrimidin-7-amine]
[1]
  inhibition at 0.1 µM: 100%

## COc1ccc(-c2c(C)nn3c(NCCc4ccncc4)cc(C)nc23)cc1OC [Ex. 89, 3-(3,4-dimethoxyphenyl)-2,5-dimethyl-N-[2-(4-pyridyl)ethyl]pyrazolo[1,5-a]pyrimidin-7-amine]
[3]
  inhibition at 1 µM: 100%

## Cc1cc(NC(C)c2ccccc2)n2nc(C)c(-c3ccc(F)cc3)c2n1 (stereo not shown) [Ex. 17, 3-(4-fluorophenyl)-2,5-dimethyl-N-(1-phenylethyl)pyrazolo[1,5-a]pyrimidin-7-amine]
Ljungan virus strain 145
  inhibition at 10 µM: 75%

## COc1ccc(-c2c(C)nn3c(Nc4ccc(Br)cc4)cc(C)nc23)cc1OC [Ex. 46, N-(4-bromophenyl)-3-(3,4-dimethoxyphenyl)-2,5-dimethyl-pyrazolo[1,5-a]pyrimidin-7-amine]
Ljungan virus strain 145
  inhibition at 10 µM: 92%
